Source: patent EP0923292B1, “IMPROVED METHOD FOR SYSTEMIC ADMINISTRATION OF 2,4-DIENOIC ACID-TYPE INSECTICIDES TO TERRESTRIAL MAMMALS” (priority 1996, dated 1998)

How the values were obtained:
C. felis = experiment: Systemic flea ovicidal activity upon oral administration to host dogs (Example 2); type: in vivo, C. felis (host: dogs); conditions: for Percent Inhibition of Flea Egg Hatching: relative to placebo
Description: Nine random-bred, clinically healthy dogs, five male and four female, ranging in weight from 7.5 to 14.9 kg and in age from 7 months to 68 months, and having hair coats ranging from fine to coarse and from 1.0 to 2.5 cm in length, were used. The dogs were assigned to three treatment groups based on weight, one group designated to receive a placebo (gelatin capsules containing no (S)-methoprene), the second group to receive gelatin capsules individually prepared to contain the appropriate quantity of (S)-methoprene such that one capsule would provide 25.0 mg (S)-methoprene per kg of the body weight of a particular dog, and the third group to receive gelatin capsules individually prepared to provide 50.0 mg/kg of body weight per dog. […]
Eleven days before the administration of the first gelatin capsule (i.e., on Day -11), and weekly thereafter through Day 59, each dog was infested with approximately 200 one-to two-week-old, unfed adult C. fells fleas of mixed sex ratio. Each dog was restrained for about one minute while the fleas were released along the dorsum.
[…] Prior to egg collection, the cages in which the dogs were housed and the collection trays were rinsed with isopropyl alcohol, and the water was turned off, feed bowls and resting pads were removed from each cage. Trays covered with a screen made of […] hardware cloth were placed under the cages, and heavy white butcher paper was placed under the hardware cloth. After an interval of 14-16 hours, the paper was swept and the debris and flea eggs thus collected were transferred to a metal pan. The debris was separated from the eggs by sieving, and the eggs were placed in half-pint plastic cartons, then transferred to 10 cm x 10 cm glass plates. Using a dissecting microscope and a fine tipped artist brush, 100 flea eggs were counted from the sweepings of each dog and separated into four replicates of 25 eggs each. The eggs were placed in a 15 mm x 60 mm disposable plastic petri dish and incubated at 79-80°F and 80% relative humidity. Seventy two hours after collection, larvae emergence was determined. Both dead and live larvae were counted to determine the ovicidal effect of the treatment.
The results are listed in Table II below, where each entry represents the percent inhibition of hatching of fleas from the flea eggs relative to the placebo group, and each entry is the average of all replicates and of all three dogs in the particular treatment group.

[1] = Methoprene blood concentrations in dogs following a single oral dose (gas chromatography); type: in vivo; conditions: single oral dose 50 mg/kg
Protocol: Six healthy mixed breed dogs, three male and three female, of weight ranging from 14 to 22 kg per dog and ages ranging from 2 to 5 years, were utilized. For each dog, a gelatin capsule containing a measured volume of (S)-methoprene was prepared, based on the dog's weight to yield a dose of 50 mg/kg of the dog's body weight in a single gelatin capsule for each dog. The dogs were fasted 24 hours before administration of their individual capsules, and dosing was achieved by placing the capsule in the back of each dog's throat and causing the dog to swallow. Food was then withheld for an additional 8 hours, although water was always available, and the dogs were fed once the following morning.
At each sampling time, 50 mL of blood was collected from the femoral vein of each dog into two 25-mL syringes. Samples were taken seven days prior to dosing (to establish a baseline), followed by three hours, 1 day, 2 days, 4 days, and 7 days after dosing.
To prepare the blood samples for methoprene content determinations, each 25-mL blood sample was mixed with 200 mL acetonitrile, 25 g anhydrous Na2SO4, and 10 g CELITE® in a blender for three one-minute segments, allowing the blender blades to cool for thirty seconds between segments. The mixture was then vacuum filtered, including a wash with 50 mL acetonitrile. The filtrate was extracted with petroleum ether for one minute, then diluted with 700 mL deionized water. To this was added 50 g NaCI and the solution was acidified to pH 2 with 0.5 N HCl. The aqueous phase was then discarded, and the petroleum ether phase was washed twice with 600 mL of deionized water. The petroleum ether was then filtered through a glass wool plug topped with 50 g Na2SO4. The Na2SO4 was then rinsed with 15 mL petroleum ether, and the extractant concentrated to 10 mL in a rotary evaporator, using a bath temperature of 30°C. The concentrated extractant was then stored in a refrigerator until the next step in the analysis.
Extraction columns were prepared by heat activating FLORISIL® (magnesium silicate absorbent) at 200°C for 24 hours, then allowing the FLORISIL to cool for 45 minutes, adding 5 mL of distilled water per 50 g of FLORISIL, shaking the mixture, and allowing it to equilibrate for 3 hours. A glass column with 28 mm intemal diameter was plugged with glass wool and filled with petroleum ether. A 1-cm layer of Na2SO4 was slowly poured into the column, followed by 6.5 cm of FLORISIL and 1.5 cm of Na2SO4. The petroleum ether was then drained until it reached the layer of Na2SO4. The extractant from the preceding paragraph was then loaded into the top of the column with a glass pipette, and its content rinsed with petroleum ether and added to the column. The column was then drained until the solvent layer was above the Na2SO4, and the eluant was discarded. Elution was then performed with 1 L of 5% diethyl ether/petroleum ether for each sample, and fractions of 175 mL and 825 mL were collected. The 825 mL fraction was then evaporated to 5 mL and stored in a refrigerator.
To prepare the 825 mL fraction for gas chromatography, one mL of internal standard was added to the sample, and the sample volume was evaporated to approximately 0.3 mL with nitrogen. Two aliquots of 5 µL each were injected on a gas chromatograph (Perkin Elmer, Sigma 300, with hydrogen flame ionization detector and data system) equipped with a 6-foot-by 1/4-inch glass column with 3% OV-101 Chrom W HP 100/120 mesh packing, using nitrogen at 60 mUmin as the carrier gas, and injector, column and detector temperatures of 300°C, 166°C, and 280°C, respectively.

COC(C)(C)CCC[C@H](C)C/C=C/C(C)=C/C(=O)OC(C)C [(S)-Methoprene, 1-isopropyl (E,E)-11-methoxy-3,7,11-trimethyl dodecadi-2,4-enoate]
duration of ovicidal efficacy (C. felis; administered systemically to host dogs at 50 mg/kg and 25 mg/kg): two weeks or more | time effective in controlling fleas (C. felis; following a single oral dose of 50 mg/kg to dogs): 14 days | Percent Inhibition of Flea Egg Hatching (C. felis; oral 25 mg/kg once on Day 0 and once on Day 33, 1 day after initial administration): 92.3% | Percent Inhibition of Flea Egg Hatching (C. felis; oral 25 mg/kg once on Day 0 and once on Day 33, 2 days after initial administration): 80.4% | Percent Inhibition of Flea Egg Hatching (C. felis; oral 25 mg/kg once on Day 0 and once on Day 33, 4 days after initial administration): 100.0% | Percent Inhibition of Flea Egg Hatching (C. felis; oral 25 mg/kg once on Day 0 and once on Day 33, 7 days after initial administration): 44.4% | Percent Inhibition of Flea Egg Hatching (C. felis; oral 25 mg/kg once on Day 0 and once on Day 33, 14 days after initial administration): 75.1% | Percent Inhibition of Flea Egg Hatching (C. felis; oral 25 mg/kg once on Day 0 and once on Day 33, 21 days after initial administration): 79.0% | Percent Inhibition of Flea Egg Hatching (C. felis; oral 25 mg/kg once on Day 0 and once on Day 33, 28 days after initial administration): 39.9% | Percent Inhibition of Flea Egg Hatching (C. felis; oral 25 mg/kg once on Day 0 and once on Day 33, 35 days after initial administration): 100.0% | Percent Inhibition of Flea Egg Hatching (C. felis; oral 25 mg/kg once on Day 0 and once on Day 33, 42 days after initial administration): 95.9% | Percent Inhibition of Flea Egg Hatching (C. felis; oral 25 mg/kg once on Day 0 and once on Day 33, 49 days after initial administration): 11.3% | Percent Inhibition of Flea Egg Hatching (C. felis; oral 25 mg/kg once on Day 0 and once on Day 33, 55 days after initial administration): 12.6% | Percent Inhibition of Flea Egg Hatching (C. felis; oral 25 mg/kg once on Day 0 and once on Day 33, 63 days after initial administration): 14.0% | Percent Inhibition of Flea Egg Hatching (C. felis; oral 50 mg/kg once on Day 0 and once on Day 33, 1 day after initial administration): 98.9% | Percent Inhibition of Flea Egg Hatching (C. felis; oral 50 mg/kg once on Day 0 and once on Day 33, 2 days after initial administration): 100.0% | Percent Inhibition of Flea Egg Hatching (C. felis; oral 50 mg/kg once on Day 0 and once on Day 33, 4 days after initial administration): 100.0% | Percent Inhibition of Flea Egg Hatching (C. felis; oral 50 mg/kg once on Day 0 and once on Day 33, 7 days after initial administration): 97.5% | Percent Inhibition of Flea Egg Hatching (C. felis; oral 50 mg/kg once on Day 0 and once on Day 33, 14 days after initial administration): 97.9% | Percent Inhibition of Flea Egg Hatching (C. felis; oral 50 mg/kg once on Day 0 and once on Day 33, 21 days after initial administration): 73.0% | Percent Inhibition of Flea Egg Hatching (C. felis; oral 50 mg/kg once on Day 0 and once on Day 33, 28 days after initial administration): 50.8% | Percent Inhibition of Flea Egg Hatching (C. felis; oral 50 mg/kg once on Day 0 and once on Day 33, 35 days after initial administration): 100.0% | Percent Inhibition of Flea Egg Hatching (C. felis; oral 50 mg/kg once on Day 0 and once on Day 33, 42 days after initial administration): 100.0% | Percent Inhibition of Flea Egg Hatching (C. felis; oral 50 mg/kg once on Day 0 and once on Day 33, 49 days after initial administration): 51.5% | Percent Inhibition of Flea Egg Hatching (C. felis; oral 50 mg/kg once on Day 0 and once on Day 33, 55 days after initial administration): 31.9% | Percent Inhibition of Flea Egg Hatching (C. felis; oral 50 mg/kg once on Day 0 and once on Day 33, 63 days after initial administration): 16.1% | concentration at 0 h ([1]; both sexes, mixed breed, dog, in vivo, mean of six dogs, 0 hours (baseline, seven days prior to dosing)): 0 µg/mL | concentration at 3 h ([1]; both sexes, mixed breed, dog, in vivo, mean of six dogs, 3 hours): 0.547 µg/mL | concentration at 24 h ([1]; both sexes, mixed breed, dog, in vivo, mean of six dogs, 24 hours): 0.085 µg/mL | concentration at 48 h ([1]; both sexes, mixed breed, dog, in vivo, mean of six dogs, 48 hours): 0.104 µg/mL | time by which methoprene level fell below detectable amounts ([1]; remaining four of the six dogs): ≤ 96 h | time (S)-methoprene remains in the dogs' blood [1]: 48 to 96 h | time by which methoprene level fell below detectable amounts ([1]; two of the six dogs): ≤ 48 h
